Read-outs that look alike come from different tables or passages of the source.
Assays:
PKA catalytic domain = target: T1, PKA catalytic domain (Homo sapiens, UniProt P17612); test: Measurement of PKA kinase inhibitory activity (IC50); format: biochemical
T1 construct: PKA catalytic domain from Upstate Biotechnology (#14-440); purchased Upstate Biotechnology 14-440
Description: A final concentration of 1 nM enzyme is used in a buffer that includes 20 mM MOPS pH 7.2, 40 μM ATP/γ^33P-ATP and 5 μM substrate. […] The reaction is allowed to proceed for 20 minutes before addition of excess orthophosphoric acid to quench activity. Unincorporated γ^33P-ATP is then separated from phosphorylated proteins on a Millipore MAPH filter plate. The plates are washed, scintillant is added and the plates are then subjected to counting on a Packard Topcount.

[1] = target: T2, PKB-PIF fusion protein (protein kinase B) (Homo sapiens, UniProt P31751); test: Measurement of PKB kinase inhibitory activity (IC50); format: biochemical
T2 construct: PIF (fusion partner); made in house
Description: The reaction is allowed to proceed for 20 minutes before addition of excess orthophosphoric acid to quench activity. The reaction mixture is transferred to a phosphocellulose filter plate where the peptide binds and the unused ATP is washed away. After washing, scintillant is added and the incorporated activity measured by scintillation counting.

[2] = clinical studies; cited from earlier work
PKC = conditions: cited from earlier work
PKG = conditions: cited from earlier work
OVCAR-3 tumour cells = conditions: concentrations of 50 and 100 microM; cited from earlier work
[3] = doses 10 times more than were needed for antitumour activity; cited from earlier work
[4] = test system: Acute Promyelocytic Leukemia (APL) patients; conditions: cited from earlier work
[5] = test system: P-glycoprotein-overexpressing subline of leukemic cell line CCRF-CEM; conditions: read-out: IC50 against P-glycoprotein-overexpressing subline; cited from earlier work
[6] = antitumour agent; cited from earlier work
[7] = 1 nM enzyme, 40 μM ATP/γ33P-ATP, 5 μM substrate, read-out: PKA IC50
[8] = 0.6 nM enzyme, 30 μM ATP/γ33P-ATP, 25 μM AKTide-2T substrate, read-out: PKB IC50

T2 sequence (P31751 with tags, fused parts or gaps limits assumed): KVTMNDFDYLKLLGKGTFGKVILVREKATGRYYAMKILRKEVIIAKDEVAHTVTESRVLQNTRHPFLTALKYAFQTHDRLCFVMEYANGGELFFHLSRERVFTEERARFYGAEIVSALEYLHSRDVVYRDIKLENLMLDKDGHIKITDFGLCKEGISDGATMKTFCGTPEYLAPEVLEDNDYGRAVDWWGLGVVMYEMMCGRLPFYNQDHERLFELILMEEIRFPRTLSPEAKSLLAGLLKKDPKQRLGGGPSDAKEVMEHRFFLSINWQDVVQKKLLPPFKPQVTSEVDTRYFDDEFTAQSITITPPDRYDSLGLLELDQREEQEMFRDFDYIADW

Q: Which IC50 (PKA catalytic domain) does the source give for `NCC(c1ccccc1)c1ccc(-c2cn[nH]c2)cc1` (centres unmarked) [Example 1, 2-Phenyl-2-[4-(1H-pyrazol-4-yl)-phenyl]-ethylamine] here?
A: < 1000 nM

Q: What about the IC50 [1] of the same molecule?
A: < 1000 nM

Q: Which IC50 (PKA catalytic domain; [7]) does the source give for `NCC(c1ccc(Cl)cc1)c1ccc(-c2cn[nH]c2)cc1` (centres unmarked) [Example 4, 2-(4-Chloro-phenyl)-2-[4-(1H-pyrazol-4-yl)-phenyl]-ethylamine] here?
A: < 1000 nM

Q: Which results are given for `Cc1n[nH]c(C)c1-c1cccc(CC(N)c2ccccc2)c1` (centres unmarked) [Example 5, 2-[3-(3,5-Dimethyl-1H-pyrazol-4-yl)-phenyl]-1-phenyl-ethylamine]?
A: IC50 (PKA catalytic domain; [7]): < 15000 nM; IC50 [1, 8]: < 5000 nM

Q: For `NCC(Cc1ccccc1)c1ccc(-c2cn[nH]c2)cc1` (centres unmarked) [Example 7, 3-Phenyl-2-[4-(1H-pyrazol-4-yl)-phenyl]-propylamine], which IC50 (PKA catalytic domain; [7]) is on record?
A: < 15000 nM

Q: What about the IC50 [1, 8] of the same molecule?
A: < 5000 nM

Q: Which results are given for `CCNCC(c1ccc(Cl)cc1)c1ccc(-c2cn[nH]c2)cc1` (centres unmarked) [Example 43, {2-(4-Chloro-phenyl)-2-[4-(1H-pyrazol-4-yl)-phenyl]-ethyl}-ethyl-amine]?
A: IC50 (PKA catalytic domain; [7]): < 1000 nM; IC50 [1, 8]: < 1000 nM

Q: Which results are given for `Clc1ccc(C(Cn2ccnc2)c2ccc(-c3cn[nH]c3)cc2)cc1` (centres unmarked) [Example 44, 4-{4-[1-(4-Chloro-phenyl)-2-imidazol-1-yl-ethyl]-phenyl}-1H-pyrazole]?
A: IC50 (PKA catalytic domain; [7]): < 1000 nM; IC50 [1, 8]: < 1000 nM

Q: Which IC50 (PKA catalytic domain; [7]) does the source give for `CNCC(c1ccc(Oc2ccccc2)cc1)c1ccc(-c2cn[nH]c2)cc1` (centres unmarked) [Example 45, Methyl-{2-(4-phenoxy-phenyl)-2-[4-(1H-pyrazol-4-yl)-phenyl]-ethyl}-amine] here?
A: < 1000 nM

Q: And the IC50 [1, 8]?
A: < 5000 nM

Q: For `CNCC(c1ccc(OC)cc1)c1ccc(-c2cn[nH]c2)cc1` (centres unmarked) [Example 46, {2-(4-Methoxy-phenyl)-2-[4-(1H-pyrazol-4-yl)-phenyl]-ethyl}-methyl-amine], which IC50 (PKA catalytic domain; [7]) is on record?
A: < 1000 nM

Q: And the IC50 [1, 8]?
A: < 1000 nM

Q: What does the source list for `CNCC(c1ccc(Oc2cnccn2)cc1)c1ccc(-c2cn[nH]c2)cc1` (centres unmarked) [Example 47, Methyl-{2-[4-(pyrazin-2-yloxy)-phenyl]-2-[4-(1H-pyrazol-4-yl)-phenyl]-ethyl}-amine]?
A: IC50 (PKA catalytic domain; [7]): < 1000 nM; IC50 [1, 8]: < 1000 nM

Q: What does the source list for `CNCC(Oc1ccccc1)c1ccc(-c2cn[nH]c2)cc1` (centres unmarked) [Example 48, Methyl-{2-phenoxy-2-[4-(1H-pyrazol-4-yl)-phenyl]-ethyl}-amine]?
A: IC50 (PKA catalytic domain; [7]): < 1000 nM; IC50 [1, 8]: < 5000 nM

Q: Which IC50 (PKA catalytic domain; [7]) does the source give for `NCCOC(c1ccc(Cl)cc1)c1ccc(-c2cn[nH]c2)cc1` (centres unmarked) [Example 49, 2-{(4-Chloro-phenyl)-[4-(1H-pyrazol-4-yl)-phenyl]-methoxy}-ethylamine] here?
A: < 1000 nM

Q: And the IC50 [1, 8]?
A: < 1000 nM

Q: For `CNCCC(c1ccc(-c2cn[nH]c2)cc1)c1ccc2ccccc2c1` (centres unmarked) [Example 52, Methyl-{3-naphthalen-2-yl-3-[4-(1H-pyrazol-4-yl)-phenyl]-propyl}-amine], which IC50 (PKA catalytic domain; [7]) is on record?
A: < 1000 nM

Q: What about the IC50 [1, 8] of the same molecule?
A: < 1000 nM

Q: Which IC50 (PKA catalytic domain; [7]) does the source give for `CNCCC(c1ccc(F)cc1)c1ccc(-c2cn[nH]c2)cc1` (centres unmarked) [Example 54, {3-(4-Fluoro-phenyl)-3-[4-(1H-pyrazol-4-yl)-phenyl]-propyl}-methyl-amine] here?
A: < 1000 nM

Q: What about the IC50 [1, 8] of the same molecule?
A: < 1000 nM

Q: Which IC50 (PKA catalytic domain; [7]) does the source give for `CNCCC(Oc1cccc(Cl)c1)c1ccc(-c2cn[nH]c2)cc1` (centres unmarked) [Example 59, {3-(3-Chloro-phenoxy)-3-[4-(1H-pyrazol-4-yl)-phenyl]-propyl}-methyl-amine] here?
A: < 1000 nM

Q: What about the IC50 [1, 8] of the same molecule?
A: < 1000 nM

Q: Which IC50 (PKA catalytic domain; [7]) does the source give for `Oc1ccc(C2(c3ccc(-c4cn[nH]c4)cc3)CCNCC2)cc1` [Example 63, 4-{4-[4-(1H-Pyrazol-4-yl)-phenyl]-piperidin-4-yl}-phenol] here?
A: < 1000 nM

Q: What about the IC50 [1, 8] of the same molecule?
A: < 1000 nM

Q: Which IC50 (PKA catalytic domain; [7]) does the source give for `CNCC(c1ccc(-c2cn[nH]c2)cc1)c1cccc(Cl)c1` (centres unmarked) [Example 66, {2-(3-Chloro-phenyl)-2-[4-(1H-pyrazol-4-yl)-phenyl]-ethyl}-methyl-amine] here?
A: < 1000 nM

Q: And the IC50 [1, 8]?
A: < 1000 nM

Q: With `COCCOc1ccc(C2(c3ccc(-c4cn[nH]c4)cc3)CCNCC2)cc1` [Example 67, 4-[4-(2-Methoxy-ethoxy)-phenyl]-4-[4-(1H-pyrazol-4-yl)-phenyl]-piperidine] as the molecule, how does the IC50 (PKA catalytic domain; [7]) read?
A: < 1000 nM

Q: What about the IC50 [1, 8] of the same molecule?
A: < 5000 nM

Q: For `OCCNCC(c1ccc(Cl)cc1)c1ccc(-c2cn[nH]c2)cc1` (centres unmarked) [Example 73, 2-{2-(4-Chloro-phenyl)-2-[4-(1H-pyrazol-4-yl)-phenyl]-ethylamino}-ethanol], which IC50 (PKA catalytic domain; [7]) is on record?
A: < 1000 nM

Q: What about the IC50 [1, 8] of the same molecule?
A: < 1000 nM

Q: For `CNCCC(c1ccc(O)cc1)c1ccc(-c2cn[nH]c2)cc1` (centres unmarked) [Example 76, 4-{3-Methylamino-1-[4-(1H-pyrazol-4-yl)-phenyl]-propyl}-phenol], which IC50 [1, 8] is on record?
A: < 1000 nM

Q: For `COc1ccc(C(CCN)c2ccc(-c3cn[nH]c3)cc2)cc1` (centres unmarked) [Example 77, 3-(4-Methoxy-phenyl)-3-[4-(1H-pyrazol-4-yl)-phenyl]-propylamine], which IC50 [1, 8] is on record?
A: < 1000 nM

Q: With `Cc1n[nH]cc1-c1ccc(C2(c3ccc(Cl)cc3)CCNCC2)cc1` [Example 78, 4-(4-Chloro-phenyl)-4-[4-(3-methyl-1H-pyrazol-4-yl)-phenyl]-piperidine] as the molecule, how does the IC50 (PKA catalytic domain; [7]) read?
A: < 1000 nM

Q: What about the IC50 [1, 8] of the same molecule?
A: < 1000 nM

Q: Which IC50 (PKA catalytic domain) does the source give for `Clc1ccc(C2(c3ccc(-c4cn[nH]c4)cc3)CNCCO2)cc1` (centres unmarked) [Example 79, 2-(4-Chloro-phenyl)-2-[4-(1H-pyrazol-4-yl)-phenyl]-morpholine] here?
A: < 1000 nM

Q: What about the IC50 [1] of the same molecule?
A: < 1000 nM

Q: Which results are given for `N#Cc1ccc(C2(c3ccc(-c4cn[nH]c4)cc3)CCNCC2)cc1` [Example 81, 4-{4-[4-(1H-Pyrazol-4-yl)-phenyl]-piperidin-4-yl}-benzonitrile]?
A: IC50 (PKA catalytic domain; [7]): < 1000 nM; IC50 [1, 8]: < 1000 nM

Q: Which IC50 (PKA catalytic domain; [7]) does the source give for `CNCC(C)(c1ccc(Cl)cc1)c1ccc(-c2cn[nH]c2)cc1` (centres unmarked) [Example 82, {2-(4-Chloro-phenyl)-2-[4-(1H-pyrazol-4-yl)-phenyl]-propyl}-methyl-amine] here?
A: < 1000 nM

Q: What about the IC50 [1, 8] of the same molecule?
A: < 1000 nM

Q: Which results are given for `CNCC(O)(c1ccc(Cl)cc1)c1ccc(-c2cn[nH]c2)cc1` (centres unmarked) [Example 83, 1-(4-Chloro-phenyl)-2-methylamino-1-[4-(1H-pyrazol-4-yl)-phenyl]-ethanol]?
A: IC50 (PKA catalytic domain; [7]): < 1000 nM; IC50 [1, 8]: < 1000 nM

Q: Which results are given for `NCC(O)(c1ccc(Cl)cc1)c1ccc(-c2cn[nH]c2)cc1` (centres unmarked) [Example 84, 2-Amino-1-(4-chloro-phenyl)-1-[4-(1H-pyrazol-4-yl)-phenyl]-ethanol]?
A: IC50 (PKA catalytic domain; [7]): < 1000 nM; IC50 [1, 8]: < 1000 nM

Q: Which IC50 (PKA catalytic domain; [7]) does the source give for `Clc1ccc(C2(c3ccc(-c4cn[nH]c4)cc3)CCNCC2)cc1Cl` [Example 85, 4-(3,4-Dichloro-phenyl)-4-[4-(1H-pyrazol-4-yl)-phenyl]-piperidine] here?
A: < 1000 nM

Q: And the IC50 [1, 8]?
A: < 1000 nM

Q: With `COc1ccc(C2(c3ccc(-c4cn[nH]c4)cc3)CCNCC2)cc1Cl` [Example 86, 4-(3-Chloro-4-methoxy-phenyl)-4-[4-(1H-pyrazol-4-yl)-phenyl]-piperidine] as the molecule, how does the IC50 (PKA catalytic domain; [7]) read?
A: < 1000 nM

Q: What about the IC50 [1, 8] of the same molecule?
A: < 1000 nM

Q: For `Fc1cc(C2(c3ccc(-c4cn[nH]c4)cc3)CCNCC2)ccc1Cl` [Example 87, 4-(4-Chloro-3-fluoro-phenyl)-4-[4-(1H-pyrazol-4-yl)-phenyl]-piperidine], which IC50 [1, 8] is on record?
A: < 1000 nM

Q: For `c1cc(C2(c3ccc(-c4cn[nH]c4)cc3)CCNCC2)ccn1` [Example 89, 4-[4-(1H-Pyrazol-4-yl)-phenyl]-1,2,3,4,5,6-hexahydro-[4,4′]bipyridinyl], which IC50 [1, 8] is on record?
A: < 5000 nM

Q: Which results are given for `NCCC(c1ccc(-c2cn[nH]c2)cc1)c1cccc(Cl)c1` (centres unmarked) [Example 90, 3-(3-Chloro-phenyl)-3-[4-(1H-pyrazol-4-yl)-phenyl]-propylamine]?
A: IC50 (PKA catalytic domain; [7]): < 1000 nM; IC50 [1, 8]: < 1000 nM

Q: With `CNCC(O)(c1ccc(-c2cn[nH]c2)cc1)c1ccc([N+](=O)[O-])cc1` (centres unmarked) [Example 91, 2-Methylamino-1-(4-nitro-phenyl)-1-[4-(1H-pyrazol-4-yl)-phenyl]-ethanol] as the molecule, how does the IC50 [1, 8] read?
A: < 1000 nM

Q: Which IC50 [1, 8] does the source give for `NCCC(c1ccc(-c2cn[nH]c2)nc1)c1ccc(Cl)c(Cl)c1` (centres unmarked) [Example 94, 3-(3,4-Dichloro-phenyl)-3-[6-(1H-pyrazol-4-yl)-pyridin-3-yl]-propylamine] here?
A: < 1000 nM

Q: For `NC(c1ccc(Cl)cc1)c1ccc(-c2cn[nH]c2)cc1` (centres unmarked) [Example 104, C-(4-Chloro-phenyl)-C-[4-(1H-pyrazol-4-yl)-phenyl]-methylamine], which IC50 [1, 8] is on record?
A: < 1000 nM

Q: Which half-life [2] does the source give for `CCCCCCCCCCCCCCCCCCOP(=O)([O-])OC1CC[N+](C)(C)CC1` [KRX-0401, Perifosine] here?
A: ~100 h

Q: Which IC50 (PKC) does the source give for `O=S(=O)(NCCNCC=C(c1ccccc1)c1ccccc1)c1cccc2cnccc12` [NL-71-101] here?
A: 104000 nM

Q: And the IC50 (PKG)?
A: 36000 nM

Q: And the “apoptosis in OVCAR-3 tumour cells, in which PKB is amplified” value (OVCAR-3 tumour cells)?
A: induced apoptosis

Q: Which “adverse effects in mice” value [3] does the source give for `CCOC(=O)c1ccc2[nH]c3c(OC)c4[nH]c5ccc(C(=O)OCC)cc5c4cc3c2c1` [SR-13668] here?
A: no adverse effects

Q: For `CC1=C(/C=C/C(C)=C/C=C/C(C)=C/C(=O)O)C(C)(C)CCC1` [Tretinoin, all-trans retinoic acid], which “remissions in APL patients” value [4] is on record?
A: 64-100%

Q: With `C/C1=C/C[C@@H](/C(C)=C/c2csc(C)n2)OC(=O)C[C@H](O)C(C)(C)C(=O)[C@H](C)[C@@H](O)[C@@H](C)CCC1` [desoxyepothilone B] as the molecule, how does the IC50 [5] read?
A: 17 nM

Q: For calicheamicin, which “potency relative to adriamycin” value [6] is on record?
A: over 1,000 times
